ChEMBL document CHEMBL1201862, “PubChem BioAssay data set” (2004)
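Protocol summary: plate cells (96-well), add compound at 5 concentrations, incubate 48 h, interpolate endpoints linearly. Here, GI50 denotes the concentration required for 50% inhibition of growth.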 Calls of active or inactive are those of the source. Rule as the data show it: active = GI50 up to about 1.1 µM and inactive = higher.

Columns and labels:
Experiment in all cases: growth of human tumour cells (NCI), 48 h
[1] = test system: HCT-116
[2] = test system: NCI-H460
[3] = test system: EKVX
[4] = test system: SR
[5] = test system: MCF7
[6] = test system: SK-MEL-2
[7] = test system: UO-31
[8] = test system: HT-29
[9] = test system: PC-3
[10] = test system: A549
[11] = test system: SNB-19
[12] = test system: DU-145
[13] = test system: NCI-H23
[14] = test system: UACC-257
[15] = test system: KM12
[16] = test system: NCI/ADR-RES
[17] = test system: SF-539
[18] = test system: SN12C
[19] = test system: SF-295
[20] = test system: Malme-3M

Measured: GI50

CCOC(=O)CC(=O)N(c1ccc(OC)cc1)C(C(=O)OC)c1ccccc1 (configuration not stated)
inactive: [1] > 100 µM | [2] > 100 µM | [3] > 100 µM | [4] > 100 µM | [5] > 100 µM | [6] > 100 µM | [7] 96.2 µM | [8] > 100 µM | [9] > 100 µM | [10] > 100 µM | [11] > 100 µM | [12] > 100 µM | [13] > 100 µM | [14] > 100 µM | [15] > 100 µM | [16] > 100 µM | [17] > 100 µM | [18] > 100 µM | [19] > 100 µM

CC12O[C@]3([C@H](C(=O)N4CCOC43C)[C@H]1Cl)[C@H]1O[C@H]12 (some centres not stated)
inactive: [1] > 100 µM | [2] > 100 µM | [3] > 100 µM | [4] 51.4 µM | [5] > 100 µM | [6] > 100 µM | [7] > 100 µM | [8] > 100 µM | [9] > 100 µM | [10] > 100 µM | [11] > 100 µM | [12] > 100 µM | [14] > 100 µM | [15] > 100 µM | [16] > 100 µM | [17] > 100 µM | [18] > 100 µM | [19] > 100 µM

C[C@@H]1C[C@@]2(O[C@@H]2C)C(=O)O[C@@H]2CCN3CC=C(COC(=O)[C@]1(C)O)[C@H]23
inactive: [1] > 100 µM | [2] > 100 µM | [3] > 100 µM | [20] > 100 µM | [5] > 100 µM | [6] > 100 µM | [7] > 100 µM | [8] > 100 µM | [9] > 100 µM | [10] > 100 µM | [11] > 100 µM | [12] > 100 µM | [13] > 100 µM | [14] > 100 µM | [15] > 100 µM | [16] > 100 µM | [17] > 100 µM | [18] > 100 µM | [19] > 100 µM

N#Cc1cnn2c1n[n+]([O-])c1ccc(Cl)cc12
inactive: [1] 8.75 µM | [2] 11.4 µM | [3] 2.9 µM | [20] 7.69 µM | [5] 28.7 µM | [6] 7.31 µM | [7] 13.5 µM | [8] 7.98 µM | [9] 14.7 µM | [10] 14.1 µM | [11] 3.11 µM | [12] 14.9 µM | [13] 5.7 µM | [14] 9.35 µM | [15] 25.6 µM | [16] 9.68 µM | [17] 18.2 µM | [18] 7.91 µM | [19] 14.7 µM

O=C1CC(c2ccccc2)n2cccc21 (configuration not stated)
inactive: [1] > 100 µM | [3] > 100 µM | [4] > 100 µM | [5] > 100 µM | [6] > 100 µM | [7] 67.6 µM | [8] > 100 µM | [9] > 100 µM | [10] > 100 µM | [11] > 100 µM | [12] > 100 µM | [13] > 100 µM | [14] > 100 µM | [15] > 100 µM | [16] > 100 µM | [17] > 100 µM | [18] > 100 µM | [19] > 100 µM

CCOc1cc(/C=C2\N=C(c3ccccc3)N(c3nc4ccccc4s3)C2=O)ccc1O
inactive: [1] 42.3 µM | [2] 29.2 µM | [3] > 100 µM | [4] 29.9 µM | [5] 33.3 µM | [6] 23.8 µM | [7] 49 µM | [8] 64.1 µM | [9] 27.9 µM | [12] 45.1 µM | [13] 21.7 µM | [14] 48.8 µM | [15] 48.8 µM | [16] 24.3 µM | [17] 50 µM | [19] 80.2 µM

Cc1ccnc2c1ccc1nc3ccccc3n12
inactive: [1] 28.1 µM | [2] 45.6 µM | [3] 1.88 µM | [4] 44.7 µM | [5] 4.45 µM | [6] > 100 µM | [7] 30.6 µM | [8] 77.4 µM | [9] > 100 µM | [10] > 100 µM | [12] > 100 µM | [13] > 100 µM | [14] > 100 µM | [15] 22 µM | [16] 37.8 µM | [17] 58.9 µM | [18] 61.5 µM | [19] 87.7 µM

COC(=O)/C=C1\C(CO[Si](C)(C)C(C)(C)C)OC(n2ccc(=O)[nH]c2=O)C1O (configuration not stated)
inactive: [1] 4.4 µM | [2] 5.9 µM | [3] 8.63 µM | [4] 6.98 µM | [5] 4.91 µM | [6] 6.25 µM | [7] 9.89 µM | [8] 7.33 µM | [9] 3.47 µM | [10] 6.35 µM | [11] 18.5 µM | [12] 7.06 µM | [13] 7.08 µM | [14] 4.73 µM | [15] 7.06 µM | [16] 10.4 µM | [17] 15.5 µM | [18] 8.57 µM | [19] 9.82 µM

CCOC(=O)c1c(NS(=O)(=O)c2ccccc2)sc2c1CCCC2
inactive: [1] 37.7 µM | [2] > 100 µM | [3] 48.4 µM | [4] 59.8 µM | [5] 46.7 µM | [6] 68.1 µM | [7] 70.5 µM | [8] 39.4 µM | [9] 39.5 µM | [10] 47.9 µM | [11] 93.1 µM | [12] 89.5 µM | [13] > 100 µM | [14] 81.7 µM | [15] 22.1 µM | [16] 62.1 µM | [17] > 100 µM | [18] 66.7 µM | [19] 43.6 µM

CC1CCC2(O)C3(C)CC4(O)OC2(C1O)C1(O)C3(O)C(OC(=O)c2ccc[nH]2)C(O)(C(C)C)C41C (configuration not stated)
inactive: [1] > 100 µM | [2] > 100 µM | [3] > 100 µM | [20] > 100 µM | [5] > 100 µM | [6] > 100 µM | [7] > 100 µM | [8] > 100 µM | [9] > 100 µM | [10] > 100 µM | [11] > 100 µM | [12] > 100 µM | [13] > 100 µM | [14] > 100 µM | [15] > 100 µM | [16] > 100 µM | [17] > 100 µM | [18] > 100 µM | [19] > 100 µM

COc1cc([C@@H]2c3cc4c(cc3[C@@H](OC3OC5COC(C)OC5C(OC(=O)CN5CCN(C)CC5)C3OC(=O)CN3CCN(C)CC3)C3COC(=O)[C@@H]32)OCO4)cc(OC)c1OC(=O)CN1CCN(C)CC1 (some centres not stated)
inactive: [1] 25.5 µM | [2] 11.2 µM | [3] > 100 µM | [20] 61.7 µM | [5] 10.8 µM | [6] > 100 µM | [7] 68.9 µM | [8] > 100 µM | [9] > 100 µM | [11] 78.7 µM | [12] 44.7 µM | [13] 22.3 µM | [14] > 100 µM | [15] > 100 µM | [16] 29.9 µM | [17] 23.1 µM | [18] 44.1 µM | [19] 38.1 µM
